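Dose response: 5 concentrations. Exposure: 48 h. Format: 96-well plates. Endpoint: linear interpolation; highest concentration if not reached. GI50: concentration for 50% inhibition of growth. TGI is the concentration that stops growth completely.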
Experiments:
Experiment in all cases: DTP human tumour cell line panel, 48 h
A549 NSCLC = tested on: A549 NSCLC
HL-60(TB) leukemia = tested on: HL-60(TB) leukemia
HOP-62 NSCLC = tested on: HOP-62 NSCLC
MALME-3M melanoma = tested on: MALME-3M melanoma
NCI-H226 lung = tested on: NCI-H226 lung
NCI-H460 lung = tested on: NCI-H460 lung
RXF 393 renal = tested on: RXF 393 renal
SF-539 CNS = tested on: SF-539 CNS
SK-MEL-28 melanoma = tested on: SK-MEL-28 melanoma
SK-OV-3 ovarian = tested on: SK-OV-3 ovarian

Structure (SMILES)	TGI (A549 NSCLC) [µM]	TGI (HL-60(TB) leukemia) [µM]	TGI (HOP-62 NSCLC) [µM]	TGI (MALME-3M melanoma) [µM]	TGI (NCI-H226 lung) [µM]	TGI (NCI-H460 lung) [µM]	TGI (RXF 393 renal) [µM]	TGI (SF-539 CNS) [µM]	TGI (SK-MEL-28 melanoma) [µM]	TGI (SK-OV-3 ovarian) [µM]	GI50 (A549 NSCLC) [µM]	GI50 (HL-60(TB) leukemia) [µM]	GI50 (HOP-62 NSCLC) [µM]	GI50 (MALME-3M melanoma) [µM]	GI50 (NCI-H226 lung) [µM]	GI50 (NCI-H460 lung) [µM]	GI50 (RXF 393 renal) [µM]	GI50 (SF-539 CNS) [µM]	GI50 (SK-MEL-28 melanoma) [µM]	GI50 (SK-OV-3 ovarian) [µM]
NNc1ncnc2cccc(Cl)c12	> 100	> 100	> 100	> 100	> 100	> 100	> 100	> 100	> 100	> 100	–	–	–	–	–	–	–	–	–	–
CCCCC1N=CNc2c1ccc1c2[nH]c2ccccc21 (configuration not stated)	10.6	3.68	9.97	10.5	> 61.1	4.22	2.16	7.91	24.6	11.3	–	–	–	–	–	–	–	–	–	–
Cn1cc(-c2ccc3nnc(C(F)(F)c4ccc5ncccc5c4)n3n2)cn1	> 100	> 100	> 100	> 100	> 100	> 100	> 86.6	> 100	> 100	> 100	60.2	> 100	56.4	64.1	58.5	59.6	25.9	47.5	> 85.8	> 86.4
O=C(O)CCCc1cc2c(s1)-c1cccc3cccc-2c13	> 100	57.5	> 100	> 100	> 100	> 100	–	> 100	> 100	75.4	–	–	–	–	–	–	–	–	–	–
C[C@H]1CCC2C(CN3CCCCC3)C(=O)OC2[C@]2(C)C(=O)CC(N3CCCCC3)C12O (some centres not stated)	90.8	10.6	–	47.5	6.73	32.6	4.31	7.93	32.9	79.9	–	–	–	–	–	–	–	–	–	–
COC(=O)C1=Cc2cn(S(=O)(=O)c3ccc(C)cc3)c3cccc(c23)C(C=C(C)C)N1C(C)=O (configuration not stated)	> 100	41.2	> 100	64.6	> 100	–	> 100	> 100	–	> 100	–	–	–	–	–	–	–	–	–	–
O=C1CCCCCCCCCCOC(=O)CCCCCCCCCCO1	> 100	44.8	> 100	> 100	> 100	> 100	> 100	> 100	> 100	> 100	–	–	–	–	–	–	–	–	–	–
CC(C)(N)C(=O)N[C@@H]1C(=O)N2[C@@H]1SC(C)(C)[C@@H]2C(=O)O	> 100	–	> 100	> 100	> 100	> 100	> 100	> 100	> 100	> 100	–	–	–	–	–	–	–	–	–	–
CSc1nc(SC)c2c(C)cn(C3OC(C)C(O)C(O)C3O)c2n1 (configuration not stated)	> 100	> 100	> 100	> 100	> 100	> 100	> 100	> 100	> 100	> 100	–	–	–	–	–	–	–	–	–	–
Cc1cc(C)c(C2=NO[C@@H]3C(=O)N(c4ccc(Cc5ccc(N6C(=O)[C@H]7C(c8c(C)cc(C)cc8C)=NO[C@H]7C6=O)cc5)cc4)C(=O)[C@H]23)c(C)c1	> 100	> 100	> 100	> 100	> 100	–	> 100	> 100	> 100	> 100	–	–	–	–	–	–	–	–	–	–
Cn1c(=O)c(-c2c(Cl)cccc2Cl)cc2cnc(Nc3ccc(I)cc3)nc21	19.4	–	0.668	3.09	–	10.4	15	0.114	> 73.6	–	3.72	–	–	0.413	0.182	< 0.01	2.44	< 0.0146	0.479	0.0734
O=C(O)c1ccccc1C1c2ccc(Cl)cc2Oc2cc(Cl)ccc21	> 100	> 100	> 100	> 100	–	> 100	> 100	> 100	> 100	> 100	–	–	–	–	–	–	–	–	–	–
NCCCCCCCCCn1c2c(c3ccccc3c1=O)C(=O)c1ccccc1-2	> 50	19.8	16.2	21.8	–	14.2	24.3	19.3	23	18.7	9.75	7.97	6.84	9.17	–	2.8	10.2	9.83	9.98	10.1
C=CNC(=S)n1nc(-c2ccccc2NC(=O)C(F)(F)F)c(=O)n(C(=S)NC=C)c1=S	> 1	–	86	> 100	86.6	47.3	> 100	> 1	> 100	73	–	–	–	–	–	–	–	–	–	–
O=[N+]([O-])c1cccc([I+]c2ccccc2)c1	24.1	41.2	18.8	–	21.3	25.3	–	24.3	23.2	27.5	3.46	4.93	5.19	–	7.12	3.56	–	10.8	10.5	13.8
CC(C)OC(=O)c1cccnc1/C=N/O	> 100	> 100	> 100	> 100	> 100	> 100	–	> 100	–	> 100	–	–	–	–	–	–	–	–	–	–
COc1cc(=O)oc(/C=C/CO)c1C	> 100	> 100	> 100	> 100	> 100	–	> 100	> 100	> 100	> 100	–	–	–	–	–	–	–	–	–	–
O=C(NCCCl)NCc1ccccc1	> 100	> 100	> 100	> 100	> 100	> 100	> 100	–	> 100	> 100	–	–	–	–	–	–	–	–	–	–
O=c1sc(-c2nc3ccccc3[nH]2)c(/N=C/c2ccccc2)n1-c1ccccc1	> 100	> 100	73.7	> 100	38.3	–	> 100	> 100	> 100	89.1	–	–	–	–	–	–	–	–	–	–
CN(CC1NCCCC1O)C12CC3CC(CC(C3)C1)C2 (configuration not stated)	> 100	> 100	> 100	> 100	> 100	> 100	–	> 100	–	> 100	–	–	–	–	–	–	–	–	–	–
COc1cc(/C=C2\CC3C4CCC5=CC(=O)CC[C@]5(C)C4CC[C@]3(C)C2=O)ccc1OCCN1CCCCC1 (some centres not stated)	41.1	–	6.66	–	21.1	14.1	10.4	–	6.13	48.7	11	–	2.36	–	5.24	3.43	2.58	–	2.59	20.5

Structure (SMILES)	TGI (A549 NSCLC) [µM]	TGI (HL-60(TB) leukemia) [µM]	TGI (HOP-62 NSCLC) [µM]	TGI (MALME-3M melanoma) [µM]	TGI (NCI-H226 lung) [µM]	TGI (NCI-H460 lung) [µM]	TGI (RXF 393 renal) [µM]	TGI (SF-539 CNS) [µM]	TGI (SK-MEL-28 melanoma) [µM]	TGI (SK-OV-3 ovarian) [µM]	GI50 (A549 NSCLC) [µM]	GI50 (HL-60(TB) leukemia) [µM]	GI50 (HOP-62 NSCLC) [µM]	GI50 (MALME-3M melanoma) [µM]	GI50 (NCI-H226 lung) [µM]	GI50 (NCI-H460 lung) [µM]	GI50 (RXF 393 renal) [µM]	GI50 (SF-539 CNS) [µM]	GI50 (SK-MEL-28 melanoma) [µM]	GI50 (SK-OV-3 ovarian) [µM]
CCCCCCn1c2c(c3c(O)cccc31)C(=O)c1ccccc1-2	34.5	63.6	33.8	–	39.7	35.8	28	35.7	> 100	> 100	16.4	18.7	18.4	–	21.6	17.6	12	18	35.9	36.3
Cn1c2c(c3ccccc31)CCN(CCCN1CCN(c3ccccc3)CC1)C2=O	61	33.6	–	–	–	–	32.6	31.7	36.7	37	–	–	–	–	–	–	–	–	–	–
CSCC(COC(C)=O)(CSC)c1ccncc1	> 100	> 100	> 100	> 100	–	> 100	> 100	> 100	> 100	> 100	–	–	–	–	–	–	–	–	–	–
COc1cc([C@@H]2c3cc4c(cc3[C@@H](NC(=O)c3ccc(OC(C)=O)cc3)C3COC(=O)[C@@H]32)OCO4)cc(OC)c1O (some centres not stated)	10.6	0.688	3.12	11.1	4.46	–	36.3	3.14	23.5	7.88	–	–	–	–	–	–	–	–	–	–
COc1cc(OC)c(/C=C/C(=O)c2c(O)cc(OC)c(C3CCN(C)CC3)c2OC)c(OC)c1	2.97	3.99	3.16	–	–	–	3.3	3.12	–	–	1.57	2.17	1.73	–	–	–	1.76	1.69	–	–
c1ccc(N2N=NC3C4CC(C5c6ccccc6C45)C32)cc1 (configuration not stated)	> 100	85.5	> 100	69.4	96.3	> 100	44.1	> 100	–	> 100	–	–	–	–	–	–	–	–	–	–
C1C[S][Ge]2([S]CCS1)[S]CCSCC[S]2	–	> 100	> 100	> 100	> 100	–	–	> 100	> 100	> 100	–	> 100	> 100	> 100	> 100	–	–	> 100	> 100	> 100
C=CCCCC(O)c1ccc(C(O)c2cnc3ccccc3c2)o1 (configuration not stated)	> 100	–	64.9	–	71.5	> 100	> 100	82.5	> 100	> 100	31	–	21.2	–	30.8	26.9	83.2	27.9	69.1	> 100
CN1c2ccccc2S(=O)(=O)n2c(COc3ccccc3)nnc21	> 100	> 100	> 100	–	> 100	> 100	> 100	> 100	> 100	> 100	–	–	–	–	–	–	–	–	–	–
C=C(C)[C@@H]1CC[C@]2(C(=O)N3CCN(C)CC3)CC[C@]3(C)[C@H](CC[C@@H]4[C@@]5(C)CC[C@H](O)C(C)(C)[C@@H]5CC[C@]43C)[C@@H]12	3.88	–	3.75	3.83	5	4.04	3.21	3.12	3.48	3.35	1.88	–	1.91	1.92	2.07	2.02	1.53	1.69	1.8	1.84
COC(=O)[C@H](C)[C@@H]1CC[C@](C)(CCC2=C(C)CCCC2(C)C)OO1	> 25	> 25	> 25	> 25	–	> 25	> 25	> 25	> 25	> 25	–	–	–	–	–	–	–	–	–	–
COc1ccc2c(c1)CC1N(C)CCC13CCCCC23 (configuration not stated)	> 100	> 100	> 100	> 100	> 100	> 100	> 100	–	> 100	> 100	–	–	–	–	–	–	–	–	–	–
COC(=O)c1cc2c(nc1C)-c1ccccc1OS2(=O)=O	> 100	> 100	67.8	> 100	> 100	> 100	> 100	> 100	–	> 100	–	–	–	–	–	–	–	–	–	–
Cc1cc(N(CCC#N)CCC#N)ccc1CC1N=C(c2ccccc2)OC1=O (configuration not stated)	> 100	> 100	> 100	> 100	> 100	> 100	–	> 100	> 100	> 100	–	–	–	–	–	–	–	–	–	–
COc1ccc(NC(=O)C2=CC(=O)c3ccc(O)cc3C2=O)c(OC)c1	> 100	> 100	> 100	> 100	> 100	> 100	> 100	> 100	> 100	–	–	–	–	–	–	–	–	–	–	–
C=CCn1c(=O)c(C(=O)NC(=O)OCC)cn(C2CCCCC2)c1=O	> 100	> 100	> 100	> 100	> 100	> 100	–	> 100	> 100	> 100	–	–	–	–	–	–	–	–	–	–
O=c1[nH]c(-c2ccc([N+](=O)[O-])cc2)nc2ccc(Cl)cc12	> 100	–	–	> 100	–	–	> 100	> 100	> 100	> 100	–	–	–	–	–	–	–	–	–	–
CCOC(=O)Cn1c(=O)[nH]c(=O)c2[nH]cnc21	> 100	> 100	> 100	> 100	–	> 100	> 100	> 100	> 100	> 100	–	–	–	–	–	–	–	–	–	–
O=C(O)C1C2CCC(O2)C1C(=O)NCc1cccnc1 (configuration not stated)	> 100	–	> 100	> 100	–	> 100	> 100	> 100	> 100	> 100	–	–	–	–	–	–	–	–	–	–
NNC(=S)NN/C=C(\C=Nc1ccccc1)[N+](=O)[O-]	> 100	> 100	> 100	> 100	> 100	–	> 100	> 100	> 100	> 100	–	–	–	–	–	–	–	–	–	–
